The values below come from ChEMBL document CHEMBL1201862, “PubChem BioAssay data set” (2004).

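48-hour exposure; five concentrations; linearly interpolated endpoints. At the GI50, growth is halved.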 Activity calls are given as the source filed them. Cut-off read from the data, not from the text of the source: active = GI50 up to about 1.1 µM and inactive = higher. Bounds are passed on as bounds.

Test systems include Hs-578T; NCI-H226; UO-31; MOLT-4; U-251; OVCAR-8; ACHN; MDA-N; CCRF-CEM; NCI-H460; HCC 2998; M14; MDA-MB-231; MCF7; HT-29; A549; KM12; SK-OV-3; A498.
Test in all cases: NCI tumour cell line growth inhibition, 48 h

Take `C=CC1(c2ccc(Br)cc2)OCCCO1`: the GI50 with Hs-578T, with NCI-H226, with UO-31, in the experiment on MOLT-4, with U-251 and in the experiment on OVCAR-8 was > 100 µM (inactive) each time. Further, the GI50 in the experiment on ACHN, in the experiment with MDA-N, in the experiment with CCRF-CEM, in the experiment on NCI-H460, in the experiment on HCC 2998 and with M14 was > 100 µM (inactive) each time. The GI50 in the experiment with MDA-MB-231, in the experiment on MCF7, with HT-29, in the experiment with A549, in the experiment on KM12 and in the experiment on SK-OV-3 was > 100 µM (inactive) throughout.

As for `CC(C)NC(=O)OCc1c2c(n(C)c1COC(=O)NC(C)C)-c1ccccc1CC2`, the GI50 was 11.9 µM (inactive) in the experiment on NCI-H226; 14.8 µM (inactive) with UO-31; 2.61 µM (inactive) with MOLT-4; 9.18 µM (inactive) in the experiment with U-251; 12 µM (inactive) in the experiment with OVCAR-8; 23.4 µM (inactive) in the experiment on A498. For the same compound, the GI50 in the experiment with CCRF-CEM was 2.07 µM (inactive); with NCI-H460 it was 14.1 µM (inactive); in the experiment with HCC 2998, 13.1 µM (inactive); with MCF7, 10.5 µM (inactive); in the experiment on HT-29, 15.2 µM (inactive); with A549 it was 23.7 µM (inactive). For the same compound, the GI50 is 15.5 µM (inactive) in the experiment with KM12 and 15.7 µM (inactive) in the experiment with SK-OV-3.

As for `COc1ccc(-c2nc(Sc3c([N+](=O)[O-])ncn3C)n[nH]2)cc1`, the GI50 in the experiment with NCI-H226 is 13.4 µM (inactive); in the experiment on UO-31, 5.13 µM (inactive); in the experiment on MOLT-4, 2.85 µM (inactive); with U-251, 2.25 µM (inactive); in the experiment with OVCAR-8, 2.44 µM (inactive); in the experiment on ACHN, 3.61 µM (inactive). Further, the GI50 with A498 is 10.5 µM (inactive); with CCRF-CEM it was 2.89 µM (inactive); in the experiment on NCI-H460 it was 8.77 µM (inactive); with HCC 2998, 8.87 µM (inactive); in the experiment on M14, 2.17 µM (inactive); in the experiment on HT-29, 2.39 µM (inactive). Further, the GI50 is 12.4 µM (inactive) in the experiment on A549, 1.99 µM (inactive) with KM12 and 4.17 µM (inactive) with SK-OV-3.

As for `CCCCNC(=O)Cn1c2ccc(Br)cc2c2nc3ccccc3nc21`, the GI50 in the experiment on Hs-578T was > 100 µM (inactive); with NCI-H226 it was 12.3 µM (inactive); with UO-31, > 100 µM (inactive); in the experiment with MOLT-4, > 100 µM (inactive); with U-251, > 100 µM (inactive); in the experiment on OVCAR-8 it was 33.3 µM (inactive). Besides, the GI50 in the experiment on ACHN, in the experiment on A498, in the experiment with MDA-N, with CCRF-CEM, in the experiment on M14 and in the experiment on MDA-MB-231 was > 100 µM (inactive) throughout. Besides, the GI50 with HT-29, in the experiment with A549 and in the experiment on KM12 was > 100 µM (inactive) in each case.

With `N#Cc1ccc(C2NN=CC23C(=O)c2ccccc2OC3c2ccccc2)cc1` (stereo not drawn), the GI50 is 30.5 µM (inactive) in the experiment with Hs-578T; 39.4 µM (inactive) in the experiment on NCI-H226; 19.2 µM (inactive) with UO-31; 22.3 µM (inactive) in the experiment with MOLT-4; 23.8 µM (inactive) in the experiment with U-251; 42.4 µM (inactive) with OVCAR-8. The GI50 is 34.7 µM (inactive) in the experiment on ACHN; 26.9 µM (inactive) in the experiment with A498; 32.6 µM (inactive) in the experiment on CCRF-CEM; 27.4 µM (inactive) with NCI-H460; 35.7 µM (inactive) with HCC 2998; 97.1 µM (inactive) with M14. The GI50 was 57.4 µM (inactive) in the experiment with MDA-MB-231; 34.2 µM (inactive) with MCF7; 31.7 µM (inactive) with HT-29; 29.4 µM (inactive) in the experiment on A549; 36.4 µM (inactive) in the experiment with KM12; 31.8 µM (inactive) in the experiment with SK-OV-3.

Regarding `CC1CN=C(N(Cc2ccc(F)cc2)C(=O)Nc2ccc(Cl)cc2)S1` (stereo not drawn), the GI50 was 51.3 µM (inactive) with Hs-578T; 35.2 µM (inactive) in the experiment with UO-31; 27.7 µM (inactive) in the experiment with MOLT-4; 32.4 µM (inactive) in the experiment with U-251; 30.1 µM (inactive) with OVCAR-8; 6.68 µM (inactive) in the experiment with ACHN. Further, the GI50 with A498 was 18.9 µM (inactive); with MDA-N it was 11.7 µM (inactive); in the experiment with CCRF-CEM it was 28 µM (inactive); with NCI-H460, 18.7 µM (inactive); in the experiment with HCC 2998, 23.2 µM (inactive); in the experiment on M14, 0.51 µM (active). Further, the GI50 with MDA-MB-231 was 32.3 µM (inactive); with MCF7, 28.8 µM (inactive); in the experiment with HT-29 it was 17.8 µM (inactive); in the experiment with A549, 21.4 µM (inactive); in the experiment with KM12, 14 µM (inactive); in the experiment on SK-OV-3, > 100 µM (inactive).

Regarding `CN(C)C(=N)NC(=S)N(C)C`, the GI50 was 17.2 µM (inactive) with NCI-H226; > 100 µM (inactive) in the experiment with UO-31; > 100 µM (inactive) in the experiment with MOLT-4; > 100 µM (inactive) with U-251; > 100 µM (inactive) in the experiment on OVCAR-8; > 100 µM (inactive) in the experiment with ACHN. The GI50 in the experiment with A498, with CCRF-CEM, with NCI-H460, with HCC 2998, in the experiment with M14 and in the experiment on HT-29 was > 100 µM (inactive) each time. Besides, the GI50 with A549, in the experiment on KM12 and in the experiment with SK-OV-3 was > 100 µM (inactive) each time.

Take `Cc1cc(C)nc(NS(=O)(=O)c2ccc(NC(=O)COC(=O)c3cccc4c(=O)c5ccccc5[nH]c34)cc2)n1`: the GI50 in the experiment on NCI-H226 is 53.3 µM (inactive); in the experiment with UO-31, 61.9 µM (inactive); in the experiment on MOLT-4, 31.3 µM (inactive); in the experiment on U-251, 20 µM (inactive); in the experiment with OVCAR-8 it was 32.1 µM (inactive); in the experiment with ACHN, 47.5 µM (inactive). Besides, the GI50 is 30.3 µM (inactive) in the experiment with A498; 34.3 µM (inactive) in the experiment with CCRF-CEM; 49 µM (inactive) in the experiment on NCI-H460; 21.1 µM (inactive) in the experiment with HCC 2998; 56 µM (inactive) with M14; 33 µM (inactive) in the experiment with HT-29. The values for the GI50 with A549, in the experiment with KM12 and in the experiment on SK-OV-3 were > 100 µM (inactive), 19.3 µM (inactive) and 38.8 µM (inactive), respectively.

For the compound `O=C(CC(C(=O)c1cccs1)c1ccccc1)c1ccccc1O` (stereo not drawn), the GI50 in the experiment on Hs-578T is 5.81 µM (inactive); in the experiment on NCI-H226, > 57.7 µM (inactive); in the experiment with UO-31 it was 18.5 µM (inactive); with MOLT-4 it was 7.08 µM (inactive); in the experiment on U-251, 9.93 µM (inactive); in the experiment with OVCAR-8, 9.62 µM (inactive). In addition, the GI50 with ACHN is 11.3 µM (inactive); in the experiment with MDA-N, 4.93 µM (inactive); in the experiment with CCRF-CEM, 2.55 µM (inactive); in the experiment with NCI-H460, 48.1 µM (inactive); in the experiment with M14 it was 4 µM (inactive); in the experiment on MCF7, 9.86 µM (inactive). Further, the GI50 in the experiment with HT-29 was 11.9 µM (inactive); with A549, 13.1 µM (inactive); in the experiment with KM12, 20.9 µM (inactive); in the experiment with SK-OV-3, 8.57 µM (inactive).

As to `N#COc1ccc(Oc2ccc(OC#N)cc2)cc1`, the GI50 is > 100 µM (inactive) in the experiment with NCI-H226; 89.7 µM (inactive) in the experiment on UO-31; 72.4 µM (inactive) in the experiment with MOLT-4; 85.7 µM (inactive) with U-251; > 100 µM (inactive) in the experiment with OVCAR-8; 35.5 µM (inactive) in the experiment with ACHN. For the same compound, the GI50 was > 100 µM (inactive) in the experiment on A498; 22.5 µM (inactive) with CCRF-CEM; 28.2 µM (inactive) with NCI-H460; > 100 µM (inactive) in the experiment with HCC 2998; > 100 µM (inactive) with M14; 70.6 µM (inactive) in the experiment with HT-29. For the same compound, the GI50 in the experiment with A549, in the experiment on KM12 and in the experiment with SK-OV-3 was > 100 µM (inactive) throughout.

With `CC(=O)OC1CC[C@@]2(C)C(CC(OC3OC(CO)C(O)C(O)C3O)[C@]3(C)C2CCC24CC23CC[C@H]4C(C)CC(O)[C@@H](O)C(C)(C)O)C1(C)C` (stereo partly drawn), the GI50 in the experiment on NCI-H226 is 17 µM (inactive); in the experiment with UO-31, > 50 µM (inactive); with MOLT-4, 11.4 µM (inactive); in the experiment on U-251, 9.71 µM (inactive); in the experiment on OVCAR-8, 19.9 µM (inactive); in the experiment on ACHN, > 50 µM (inactive). For the same compound, the GI50 in the experiment on A498 is 16.8 µM (inactive); with CCRF-CEM, 11.4 µM (inactive); in the experiment with NCI-H460, 18.8 µM (inactive); in the experiment with HCC 2998 it was 11.7 µM (inactive); with M14 it was 12 µM (inactive); in the experiment on HT-29, 16.9 µM (inactive). The figures for the GI50 with A549, with KM12 and in the experiment with SK-OV-3 were > 50 µM (inactive), 10.5 µM (inactive) and > 50 µM (inactive), respectively.

With `Cc1c2cc[n+](C)cc2c(C)c2c1[nH]c1ccccc12`, the GI50 in the experiment on NCI-H226 is 0.34 µM (active); in the experiment with UO-31, 15.8 µM (inactive); in the experiment with MOLT-4, 0.912 µM (active); with U-251, 0.379 µM (active); in the experiment with OVCAR-8 it was 0.399 µM (active); in the experiment on A498 it was 4.26 µM (inactive). Also, the GI50 in the experiment with CCRF-CEM was 2.33 µM (inactive); in the experiment with NCI-H460, 2.06 µM (inactive); in the experiment on HCC 2998 it was 3.49 µM (inactive); with MCF7 it was 3.08 µM (inactive); with HT-29, 5.83 µM (inactive); with A549 it was 0.225 µM (active). Also, the GI50 with KM12 is 0.402 µM (active); in the experiment on SK-OV-3 it was 6.67 µM (inactive).
